Reference: article PMC7092914 (Biochemical and Biophysical Research Communications, 2005)
“Also recorded” adds a separate entry of the source.

Target: SARS-CoV 3CL protease (Severe acute respiratory syndrome coronavirus, UniProt P0C6X7)
Test: biochemical
Format: biochemical

| SMILES | IC50 [µM] | apparent Vmax in presence of inhibitor [µmol/min/mg] | dependence of inhibitory effect on preincubation time | inhibition mechanism / binding mode | potency relative to hexachlorophene (times less potent) |
| --- | --- | --- | --- | --- | --- |
| Oc1c(Cl)cc(Cl)c(Cl)c1Cc1c(O)c(Cl)cc(Cl)c1Cl [hexachlorophene] | 5 | 6.98 ± 0.16 | dependent on preincubation time; also recorded: slowly binding inhibitor | classic competitive inhibitor | – |
| Cc1c(O)cccc1C(=O)N[C@@H](CSc1ccccc1)[C@H](O)CN1C[C@H]2CCCC[C@H]2C[C@H]1C(=O)NC(C)(C)C [nelfinavir] | 46 | – | – | – | about 10 times |
| Oc1cc(Cl)ccc1Oc1ccc(Cl)cc1Cl [triclosan] | – | – | – | – | about 10 times |
